Measurements reported in ChEMBL document CHEMBL2062447, “The cephalostatins. 22. synthesis of bis-steroidal pyrazine pyrones (1)” (2012).

The compounds below were run on P388 (assay: Growth inhibition of mouse P388 cells). Conditions: read-out: ED50 (the source's name).
Type: functional

SMILES | EC50 [µM]
CC(=O)O[C@H]1CC[C@H]2[C@@H]3CC[C@H]4Cc5nc6c(nc5C[C@]4(C)[C@H]3CC[C@]12C)C[C@@H]1CC[C@@H]2[C@H](CC[C@]3(C)[C@@H](OC(C)=O)CC[C@@H]23)[C@@]1(C)C6 | 91
C[C@]12Cc3nc4c(nc3C[C@@H]1CC[C@@H]1[C@@H]2CC[C@]2(C)C(=O)CC[C@@H]12)C[C@@]1(C)[C@@H](CC[C@@H]2[C@@H]1CC[C@]1(C)C(=O)CC[C@@H]21)C4 | 120
C[C@]12Cc3nc4c(nc3C[C@@H]1CC[C@@H]1[C@@H]2CC[C@]2(C)C(OS(=O)(=O)C(F)(F)F)=CC[C@@H]12)C[C@@]1(C)[C@@H](CC[C@@H]2[C@@H]1CC[C@]1(C)C(OS(=O)(=O)C(F)(F)F)=CC[C@@H]21)C4 | 42
C[C@]12Cc3nc4c(nc3C[C@@H]1CC[C@H]1[C@H]3CC=C(c5ccc(=O)oc5)[C@@]3(C)CC[C@@H]12)C[C@@]1(C)[C@@H](CC[C@H]2[C@H]3CC=C(c5ccc(=O)oc5)[C@@]3(C)CC[C@@H]21)C4 | 57
C[C@]12Cc3nc4c(nc3C[C@@H]1CC[C@@H]1[C@@H]2[C@@H](O)C[C@]2(C)/C(=C/[C@@H]3CC(=O)C=CO3)CC[C@@H]12)C[C@@]1(C)[C@@H](CC[C@@H]2[C@@H]1[C@@H](O)C[C@]1(C)/C(=C/[C@H]3CC(=O)C=CO3)CC[C@@H]21)C4 | 25
C[C@@H]1[C@]2(O[C@H]3C=C4[C@@H]5CC[C@H]6Cc7nc8c(nc7C[C@]6(C)[C@H]5C[C@@H](O)[C@]4(C)[C@]31O)C[C@@H]1CC[C@H]3C4=CC[C@@H]5[C@H](C)[C@@]6(OC[C@]45C(=O)C[C@@H]3[C@@]1(C)C8)OC(C)(C)C[C@H]6O)O[C@](C)(CO)C[C@H]2O [CEPHALOSTATIN 1] | 0.001
C[C@@H]1[C@]2(O[C@H]3C=C4[C@@H]5CC[C@H]6Cc7nc8c(nc7C[C@]6(C)[C@H]5C[C@@H](O)[C@]4(C)[C@]31O)C[C@@H]1CC[C@H]3C4=C[C@@H]5O[C@]6(O[C@](C)(CO)C[C@H]6O)[C@@H](C)[C@]5(O)[C@@]4(C)[C@H](O)C[C@@H]3[C@@]1(C)C8)O[C@](C)(CO)C[C@H]2O [CEPHALOSTATIN 12] | 0.076
